The target of this assay is recombinant human HPK1 (Homo sapiens (Human), UniProt Q92918). The experiment in a line: HPK1 kinase assay (Promega ADP-Glo kinase assay). The format is biochemical. The settings on record: In vitro activity against HPK1, 5 ng HPK1, MBP substrate, ATP 25 μM, 30° C. 40 minutes. In outline: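 IC50 was derived from percent inhibition across a range of compound concentrations. Recombinant human HPK1 (5 ng) phosphorylated MBP for 40 min at 30 °C in Tris buffer pH 7.5 with 20 mM MgCl2, with ATP added as a 25 µM solution and 0.5% DMSO. ADP formed was read by ADP-Glo luminescence.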
A general note: In ADP-Glo the light output rises with the ADP produced.

In patent US20250197406A1, “INDAZOLES AS HEMATOPOIETIC PROGENITOR KINASE 1 (HPK1) INHIBITORS AND METHODS FOR USING SAME” (1ST Biotherapeutics, Inc., priority 2022, published 2025) one finds IC50 data, which are given here for 19 compounds.

The structures appear in SMILES notation. Counter-ions that a name gives are not always drawn.

recombinant human HPK1, sequence (Q92918 whole entry): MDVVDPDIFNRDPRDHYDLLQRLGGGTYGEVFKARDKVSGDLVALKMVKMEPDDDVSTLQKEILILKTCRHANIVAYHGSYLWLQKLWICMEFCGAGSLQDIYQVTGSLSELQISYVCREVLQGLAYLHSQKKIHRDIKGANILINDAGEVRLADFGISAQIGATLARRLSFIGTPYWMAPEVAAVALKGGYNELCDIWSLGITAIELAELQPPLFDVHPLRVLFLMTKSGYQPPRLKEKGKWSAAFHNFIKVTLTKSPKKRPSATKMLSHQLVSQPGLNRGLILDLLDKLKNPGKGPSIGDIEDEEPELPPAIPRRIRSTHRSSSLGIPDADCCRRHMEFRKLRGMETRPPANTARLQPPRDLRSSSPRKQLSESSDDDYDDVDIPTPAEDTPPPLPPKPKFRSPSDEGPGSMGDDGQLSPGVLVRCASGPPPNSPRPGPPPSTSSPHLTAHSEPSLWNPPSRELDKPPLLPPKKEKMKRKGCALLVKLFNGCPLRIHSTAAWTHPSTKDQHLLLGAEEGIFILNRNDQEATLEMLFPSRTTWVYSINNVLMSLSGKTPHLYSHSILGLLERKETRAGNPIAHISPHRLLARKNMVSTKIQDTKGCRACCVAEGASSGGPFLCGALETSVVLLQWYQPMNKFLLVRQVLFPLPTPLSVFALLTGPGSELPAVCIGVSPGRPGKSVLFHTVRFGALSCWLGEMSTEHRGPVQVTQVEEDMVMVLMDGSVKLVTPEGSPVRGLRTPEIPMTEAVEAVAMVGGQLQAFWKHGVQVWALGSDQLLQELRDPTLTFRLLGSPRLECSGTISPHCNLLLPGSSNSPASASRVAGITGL

As a reminder, the IC50 is the concentration needed to halve the response being measured. Consider `CC(=O)NC(c1c(F)c(C(F)(F)F)c(-c2cn3cc(NC(=O)[C@@H]4C[C@@H]4F)nc3cn2)c2cn[nH]c12)C1CC1` (stereo partly drawn) [Example 56, (1S,2S)-N-(6-(7-(acetamido(cyclopropyl)methyl)-6-fluoro-5-(trifluoromethyl)-1H-indazol-4-yl)imidazo[1,2-a]pyrazin-2-yl)-2-fluorocyclopropane-1-carboxamide formate], for which the IC50 is less than 100 nM.
Then `CN(C)c1c(F)c(C(F)(F)F)c(-c2cn3cc(NC(=O)[C@@H]4C[C@H]4F)nc3cn2)c2cn[nH]c12` [Example 30, (1S,2R)-N-(6-(7-(dimethylamino)-6-fluoro-5-(trifluoromethyl)-1H-indazol-4-yl)imidazo[1,2-a]pyrazin-2-yl)-2-fluorocyclopropane-1-carboxamide], with less than 100 nM; and `CC(C)Nc1c(F)c(Cl)c(-c2cn3cc(NC=O)nc3cn2)c2cn[nH]c12` [Example 112, N-(6-(5-chloro-6-fluoro-7-(isopropylamino)-1H-indazol-4-yl)imidazo[1,2-a]pyrazin-2-yl)formamide], with less than 100 nM; and `CC(C)Nc1c(F)c(Cl)c(-c2cn3cc(NC(=O)[C@@H]4C[C@@H]4CCl)nc3cn2)c2cn[nH]c12` [Example 37, (1R,2S)-N-(6-(5-chloro-6-fluoro-7-(isopropylamino)-1H-indazol-4-yl)imidazo[1,2-a]pyrazin-2-yl)-2-(chloromethyl)cyclopropane-1-carboxamide], with less than 100 nM.
Consider `CC(O)c1c(F)c(C(F)F)c(-c2cn3cc(NC(=O)[C@@H]4C[C@@H]4F)nc3cn2)c2cn[nH]c12` (stereo partly drawn) [Example 49, (1S,2S)-N-(6-(5-(difluoromethyl)-6-fluoro-7-(1-hydroxyethyl)-1H-indazol-4-yl)imidazo[1,2-a]pyrazin-2-yl)-2-fluorocyclopropane-1-carboxamide], for which the IC50 is less than 100 nM.
In the case of `CC(NC=O)c1c(F)c(C(F)(F)F)c(-c2cn3cc(NC(=O)[C@@H]4C[C@@H]4F)nc3cn2)c2cn[nH]c12` (stereo partly drawn) [Example 96, (1S,2S)-2-fluoro-N-(6-(6-fluoro-7-(1-formamidoethyl)-5-(trifluoromethyl)-1H-indazol-4-yl)imidazo[1,2-a]pyrazin-2-yl)cyclopropane-1-carboxamide], the IC50 was less than 100 nM.
The result for `Cc1c(F)c(C2=CCCC2)c2[nH]ncc2c1-c1cn2cc(NC(=O)[C@@H]3C[C@@H]3F)nc2cn1` [Example 11, (1S,2S)-N-(6-(7-(cyclopent-1-en-1-yl)-6-fluoro-5-methyl-1H-indazol-4-yl)imidazo[1,2-a]pyrazin-2-yl)-2-fluorocyclopropane-1-carboxamide] reads less than 100 nM; that for `CC(C)Nc1c(F)c(Cl)c(-c2cn3cc(NC(=O)CN(C)C)nc3cn2)c2cn[nH]c12` [Example 103, N-(6-(5-chloro-6-fluoro-7-(isopropylamino)-1H-indazol-4-yl)imidazo[1,2-a]pyrazin-2-yl)-2-(dimethylamino)acetamide], less than 100 nM; that for `Cc1c(F)c(C(O)C2CC2)c2[nH]ncc2c1-c1cn2cc(NC(=O)[C@@H]3C[C@@H]3F)nc2cn1` (stereo partly drawn) [Example 1, (1S,2S)-N-(6-(7-(cyclopropyl(hydroxy)methyl)-6-fluoro-5-methyl-1H-indazol-4-yl)imidazo[1,2-a]pyrazin-2-yl)-2-fluorocyclopropane-1-carboxamide], less than 100 nM.
For the compound `Cc1c(F)c(C(C)NC(=O)C(F)(F)F)c2[nH]ncc2c1-c1cn2cc(NC(=O)[C@@H]3C[C@@H]3F)nc2cn1` (stereo partly drawn) [Example 71, (1S,2S)-2-fluoro-N-(6-(6-fluoro-5-methyl-7-(1-(2,2,2-trifluoroacetamido)ethyl)-1H-indazol-4-yl)imidazo[1,2-a]pyrazin-2-yl)cyclopropane-1-carboxamide], the IC50 was less than 100 nM.
Then `CC(c1c(F)c(C(F)F)c(-c2cn3cc(NC(=O)[C@@H]4C[C@@H]4F)nc3cn2)c2cn[nH]c12)N1C(=O)c2ccccc2C1=O` (stereo partly drawn) [Example 50, (1S,2S)-N-(6-(5-(difluoromethyl)-7-(1-(1,3-dioxoisoindolin-2-yl)ethyl)-6-fluoro-1H-indazol-4-yl)imidazo[1,2-a]pyrazin-2-yl)-2-fluorocyclopropane-1-carboxamide], with less than 100 nM.
Take `CC(C)Nc1c(F)c(Cl)c(-c2cn3cc(NC(=O)[C@@H]4C[C@@H]4C(N)=O)nc3cn2)c2cn[nH]c12` [Example 39, (1R,2S)-N1-(6-(5-chloro-6-fluoro-7-(isopropylamino)-1H-indazol-4-yl)imidazo[1,2-a]pyrazin-2-yl)cyclopropane-1,2-dicarboxamide]: the IC50 is less than 100 nM.
In the case of `Cc1c(F)c(C(N)C2CC2)c2[nH]ncc2c1-c1cn2cc(NC(=O)[C@@H]3C[C@@H]3F)nc2cn1` (stereo partly drawn) [Example 23, (1S,2S)-N-(6-(7-(amino(cyclopropyl)methyl)-6-fluoro-5-methyl-1H-indazol-4-yl)imidazo[1,2-a]pyrazin-2-yl)-2-fluorocyclopropane-1-carboxamide], the IC50 is less than 100 nM.
The result for `CN(C)c1c(F)c(C(F)(F)F)c(-c2cn3cc(NC(=O)[C@H]4C[C@H]4F)nc3cn2)c2cn[nH]c12` [Example 27, (1R,2R)-N-(6-(7-(dimethylamino)-6-fluoro-5-(trifluoromethyl)-1H-indazol-4-yl)imidazo[1,2-a]pyrazin-2-yl)-2-fluorocyclopropane-1-carboxamide] reads less than 100 nM; that for `COC(=O)NC1(C(=O)Nc2cn3cc(-c4c(Cl)c(F)c(NC(C)C)c5[nH]ncc45)ncc3n2)CC1` [Example 47, methyl (1-((6-(5-chloro-6-fluoro-7-(isopropylamino)-1H-indazol-4-yl)imidazo[1,2-a]pyrazin-2-yl)carbamoyl)cyclopropyl)carbamate], 501 to 1000 nM.
As to `CC(C)N(c1c(F)c(Cl)c(-c2cn3cc(NC(=O)[C@@H]4C[C@@H]4F)nc3cn2)c2cn[nH]c12)C1OC(C(=O)O)C(O)C(O)C1O` (stereo partly drawn) [Example 14, 6-((5-chloro-6-fluoro-4-(2-((1S,2S)-2-fluorocyclopropane-1-carboxamido)imidazo[1,2-a]pyrazin-6-yl)-1H-indazol-7-yl)(isopropyl)amino)-3,4,5-trihydroxytetrahydro-2H-pyran-2-carboxylic acid], the half-maximal inhibitory concentration (IC50) was less than 100 nM.
For `CC(C)Nc1c(F)c(C(=O)O)c(-c2cn3cc(NC(=O)[C@@H]4C[C@@H]4F)nc3cn2)c2cn[nH]c12` [Example 73, 6-fluoro-4-(2-((1S,2S)-2-fluorocyclopropane-1-carboxamido)imidazo[1,2-a]pyrazin-6-yl)-7-(isopropylamino)-1H-indazole-5-carboxylic acid], the concentration for half-maximal inhibition (IC50) was in the range of 501 to 1000 nM.
Take `Cc1c(F)c(C(C)CO)c2[nH]ncc2c1-c1cn2cc(NC(=O)[C@@H]3C[C@@H]3F)nc2cn1` (stereo partly drawn) [Example 8, (1S,2S)-2-fluoro-N-(6-(6-fluoro-7-(1-hydroxypropan-2-yl)-5-methyl-1H-indazol-4-yl)imidazo[1,2-a]pyrazin-2-yl)cyclopropane-1-carboxamide]: the IC50 was less than 100 nM.
The result for `O=CNC(c1c(F)c(C(F)(F)F)c(-c2cn3cc(NC(=O)[C@@H]4C[C@@H]4F)nc3cn2)c2cn[nH]c12)C1CC1` (stereo partly drawn) [Example 115, (1S,2S)-N-(6-(7-(cyclopropyl(formamido)methyl)-6-fluoro-5-(trifluoromethyl)-1H-indazol-4-yl)imidazo[1,2-a]pyrazin-2-yl)-2-fluorocyclopropane-1-carboxamide] reads less than 100 nM.
